{"source": "patent EP3050886A1", "about": "“Fluorescent dyes and dye precursors” (Bürkert Werke GmbH, priority 2015, dated 2016)", "key": {"[1]": {"test_system": "Comamonas testosteroni/alcaligenes", "test": "Bacteria staining test, fluorescence microscopy (data not shown)", "assay_type": "cell-based", "method": "(§1) Bacteria (100 µl suspension at 1·10^9 bacteria/ml) were stained with 10 µM or 15 µM of pro-fluorophore (5-CFDA, 5-PFDAE, 5-PFDAT, 5-PFDA, 5-COGDA, 5-POGDA or 5-POGAM) in 200 µl of PBS solution containing 0.6 % of glutaraldehyde. Bacteria were incubated at 37 °C for 10 - 60 min with pro-fluorophore in darkness. After bacterial staining, they were washed and resuspended in 100 µl of PBS as described above.\n(§2) Staining of the bacterial suspension was observed under a fluorescent microscope. These bacteria were imaged with a Leica DM5500 microscope equipped with FITC filter. […] Images were collected with a 100x objective. Fluorescence intensity of stained bacterial suspension was also measured with FluoroLog®-3 (Horiba Jobin Yvon) spectrofluorometer equipped with sample stirring. Samples were placed in fluorescence grade quartz cuvette having a volume of 1 ml. The excitation wavelength used was 488 nm and emission wavelength used was 517 nm. The same experiment was repeated three times (n = 3).\n(§3) No fluorescence signal was detected by microscopy analysis with the dead bacteria."}, "[2]": {"test_system": "Klebsiella oxytoca", "test": "Bacteria staining test, fluorescence microscopy (data not shown)", "assay_type": "cell-based", "method": "as §1, §2, §3"}, "[3]": {"test_system": "Citobacter freudii", "test": "Bacteria staining test, fluorescence microscopy (data not shown)", "assay_type": "cell-based", "method": "as §1, §2, §3"}, "[4]": {"test": "Long-term stability in anhydrous DMSO (UHPLC-MS/MS)", "assay_type": "physicochemical", "conditions": "120 µM in anhydrous DMSO, room temperature (23 ± 2 °C), absence of light, after 77 days", "method": "To examine whether the pro-fluorophores 5-POGDA and 5-POGAM could be stored for at least two months in solution at room temperature (23 ± 2 °C) and in the absence of light, they were dissolved in anhydrous DMSO solvent and analysed by liquid chromatography-mass spectrometry. The analysis was performed using an UHPLC-MS/MS system (LC-MS 8030, Shimadzu). 5-POGDA or AM (120 µM) were stored in anhydrous DMSO. A solution of 5-CFDA (20 µM) in acetonitrile stored at -80°C was used as internal reference for HPLC-MS/MS analysis. The solution injected was composed of 5-POGDA or AM (1.2 µM), and 5-CFDA (0,2 µM) in H2O/acetonitrile, ratio 1/1 (V/V).\nData acquisition and analysis were performed using LabSolutions version 5 software. A 1.7 µm Kinetex™ column (50 X 2.1 mm) was used for HPLC. The mobile phase flow rate was fixed at 0.5 ml/min and the following program was applied for the elution: 0-1.2 min, 5-95% B; 1.2-1.4 min, 95% B; 1.4-1.42 min, […] and 1.42-2.8 min, 5% B. Solvent A consisted of 0.05% formic acid in water and solvent B was HPLC grade acetonitrile. 1 µl was injected.\nThe mass spectrometer was interfaced with the UHPLC system using an electrospray ion source. […] The percentage of remaining test compound relative to t0 was measured using the peak area on the chromatogram."}, "[5]": {"test_system": "E. coli (EC18)", "test": "Immunofluorescence and viability staining of E. coli", "assay_type": "cell-based, Escherichia coli", "conditions": "15 µM, 30 min at 37 °C, PBS containing 0.6 % glutaraldehyde", "method": "Environmental E. Coli (EC18) were cultivated and re-suspended in PBS as described above. A dead bacterial suspension was also prepared as previously described. Dead or viable E. coli (EC18) (100 µl of suspension at 1.10^9 bacteria/ml) were incubated with rabbit anti-EC18 polyclonal antibodies (anti-EC18 pAb) (dilution 1/20) for 1 h at room temperature. This anti-EC 18 pAb was obtained from immunized rabbit with inactivated EC18 (Eurogentec). Bacteria were washed in PBS by centrifugation at 10000 rpm for 3 min at room temperature. Then, they were resuspended in 200 µl of PBS solution containing 0.6 % of glutaraldehyde with 15 µM of 5-POGDA and incubated for 30 min at 37 °C in the absence of light. Following several washes with PBS as described above, dead or viable E. coli (EC18) were re-suspended in 200 µl of PBS and incubated for 1 h at room temperature in the absence of light with AlexaFluor 568 labeled anti-rabbit immunoglobulin (dilution 1/1000) (Molecularprobes, A11036). Bacteria were washed twice and re-suspended in 100 µl of PBS. They were imaged with a Leica DM5500 microscope equipped with FITC and Cy3 filters. Images were collected with a 100x objective. The same experiment was repeated three times (n = 3)."}}, "note": "“Also recorded” adds a separate entry of the source."}
{"compound": "CCCNC(=O)c1ccc2c(c1)C(=O)OC21c2cc(F)c(OCOC(C)=O)cc2Oc2cc(OCOC(C)=O)c(F)cc21", "note": "[Example 5-POGAM, 2',7'-difluoro-3-oxo-5-(propylcarbamoyl)-3H-spiroisobenzofuran-1,9'-xanthene-3',6'-diyl diacetoxymethyl ether]", "values": [{"measurement": "staining of viable versus dead bacteria", "setting": "[1]", "value": "The same results were obtained"}, {"measurement": "staining of viable versus dead bacteria", "setting": "[2]", "value": "The same results were obtained"}, {"measurement": "staining of viable versus dead bacteria", "setting": "[3]", "value": "The same results were obtained"}, {"measurement": "percentage remaining in the solution", "setting": "[4]", "value": "~65", "unit": "%"}]}
{"compound": "CCCNC(=O)c1ccc2c(c1)C(=O)OC21c2cc(F)c(OC(C)=O)cc2Oc2cc(OC(C)=O)c(F)cc21", "note": "[Example 5-POGDA, 2',7'-difluoro-3-oxo-5-(propylcarbamoyl)-3H-spiro[isobenzofuran-1,9'-xanthene]-3',6'-diyl diacetate]", "values": [{"measurement": "staining of viable versus dead bacteria", "setting": "[1]", "value": "The same results were obtained"}, {"measurement": "staining of viable versus dead bacteria", "setting": "[2]", "value": "The same results were obtained"}, {"measurement": "staining of viable versus dead bacteria", "setting": "[3]", "value": "The same results were obtained"}, {"measurement": "green fluorescence of viable and dead E. coli (EC18) coated with antibodies", "setting": "[5]", "value": "bright green fluorescence; also recorded: viable cells have a green fluorescence and dead cells have no green fluorescence"}, {"measurement": "percentage remaining in the solution", "setting": "[4]", "value": "around 18%"}]}
